From patent publication US9328138B2 (priority 2011, dated 2016)

Assays:
[1] = target: T1, HCV genotype 1b (BK) NS3 modified enzyme with a R155K mutation (Hepatitis C virus genotype 1b, UniProt P26663, R1181K); test: HCV NS3 protease time-resolved fluorescence (TRF) assay, genotype 1b R155K; format: biochemical; conditions: Ki 1b R155K
T1 construct: HCV genotype 1b (BK) NS3 modified enzyme
Description: (§1) The HCV NS3 protease inhibitory activity of the present compounds may be tested using assays known in the art. One such assay is HCV NS3 protease time-resolved fluorescence (TRF) assay as described below and in International Patent Application Publication No. WO2006/102087. Other examples of such assays are described in e.g., International Patent Application Publication No. WO2005/046712. The assay is performed in a final volume of 100 μl in assay buffer containing 50 mM HEPES, pH 7.5, 150 mM NaCl, 15% glycerol, 0.15% Triton X-100, 10 mM DTT, and 0.1% PEG 8000. NS3 protease is pre-incubated with various concentrations of inhibitors in DMSO for 30 minutes. The reaction is initiated by adding the TRF peptide substrate (final concentration 100 nM). NS3 mediated hydrolysis of the substrate is quenched after 1 hour at room temperature with 100 μl of 500 mM MES, pH 5.5. Product fluorescence is detected using either a VICTOR V2 or FUSION fluorophotometer (Perkin Elmer Life and Analytical Sciences) with excitation at 340 nm and emission at 615 nm with a 400 μs delay. Testing concentrations of different enzyme forms are selected to result in a signal to background ratio (S/B) of 10-30. IC50 values are derived using a standard four-parameter fit to the data. K; values are derived from IC50 values using the following formula, IC50=Ki(1+[S]/Km), Eqn (1), where [S] is the concentration of substrate peptide in the reaction and KM is the Michaelis constant. See Gallinari et al., 1999, Biochem. 38:5620-32; Gallinari et al., 1998, J. Virol. 72:6758-69; Taliani et al., 1996, Anal. Biochem. 240:60-67.
(§2) The HCV NS3 protease inhibitory activity was measured using the protease time-resolved fluorescence (TRF) assay as described below and in International Patent Application Publication No. WO 2006/102087. The assay was performed with HCV genotype 1b (BK) NS3 modified enzyme with a R155K mutation and genotype 3a (3A-1).
(§3) The assay was performed in a final volume of 50 μl in assay buffer containing 50 mM HEPES, pH 7.5, 150 mM NaCl, 15% glycerol, 0.15% TRITON X-100, 10 mM DTT, and 0.1% PEG 8000. NS3 and NS4A protease is pre-incubated with various concentrations of inhibitors in DMSO for 10 minutes. The reaction was initiated by adding the TRF peptide substrate (final concentration 25 nM) and NS3 mediated hydrolysis of the substrate proceeds for 6 hours at room temperature. Product fluorescence is detected using an Envision plate reader (Perkin Elmer) with excitation at 340 nm and emission at 615 nm with a 400 μs delay. Testing concentrations of the enzymes were selected to result in a signal to background ratio (S/B) of 5-20. IC50 values are derived using a standard four-parameter fit to the data.
(§4) NS3 and NS4A protease is pre-incubated with various concentrations of inhibitors in DMSO for 30 minutes. The reaction is initiated by adding the TRF peptide substrate (final concentration 100 nM). NS3 mediated hydrolysis of the substrate is quenched after 1 hour at room temperature with 100 μl of 500 mM MES, pH 5.5. Product fluorescence is detected using either a VICTOR V2 or FUSION fluorophotometer (Perkin Elmer Life and Analytical Sciences) with excitation at 340 nm and emission at 615 nm with a 400 μs delay. Testing concentrations of the enzymes are selected to result in a signal to background ratio (S/B) of 8-30. IC50 values are derived using a standard four-parameter fit to the data. Ki values are derived from IC50 values using the following formula, IC50=Ki(1+[S][…]), Eqn (1), where [S] is the concentration of substrate peptide in the reaction and KM is the Michaelis constant. See Gallinari et al., 1999, Biochem. 38:5620-32; Gallinari et al., 1998, J. Virol. 72:6758-69; and Taliani et al., 1996, Anal. Biochem. 240:60-67. ND means not determined.

[2] = target: HCV NS3 protease genotype 3a (3A-1) (Hepatitis C virus genotype 3a, UniProt Q81258); test: HCV NS3 protease time-resolved fluorescence (TRF) assay, genotype 3a; format: biochemical; conditions: Ki 3a
Description: as §1, §2, §3, §4

[3] = genotype 1b (BK) NS3 R155K, single value

SMILES | Ki [1, 3] | Ki [2] | Ki ([1]; first of two values printed in the cell (not explained)) | Ki ([1]; second of two values printed in the cell (not explained))
C=C[C@@H]1C[C@]1(NC(=O)[C@@H]1C[C@@H]2CN1C(=O)[C@H](C1CCCC1)NC(=O)O[C@@H]1CCC[C@H]1CC/C=C\Cc1c(nc3ccccc3c1OCC)O2)C(=O)NS(=O)(=O)C1CC1 [Example 3, (3aR,7S,10S,12R,21Z,24aS)-7-cyclopentyl-N-{(1R,2S)-1-[(cyclopropylsulfonyl)carbamoyl]-2-ethenylcyclopropyl}-19-ethoxy-5,8-dioxo-1,2,3,3a, 5,6,7,8,11,12,20,23,24,24a-tetradecahydro-10H-9,12-methanocyclopenta[18,19][1,10,3,6] dioxadiazacyclononadecino[11,12-b] quinoline-10-carboxamide] | 1.4 nM | 35 nM |  | 
C=C[C@@H]1C[C@]1(NC(=O)[C@@H]1C[C@@H]2CN1C(=O)[C@H](C(C)(C)C)NC(=O)O[C@@H]1C[C@H]1CCCCCc1c(nc3ccccc3c1OC1CC3CCC(C1)N3CC(F)(F)F)O2)C(=O)NS(=O)(=O)C1(C)CC1 (stereo partly drawn) [Example 275, potassium {[(1R,2S)-1-({[(1aR,5S,8S,10R,22aR)-5-tert-butyl-3,6-dioxo-17-{[8-(2,2,2-trifluoroethyl)-8-azabicyclo[3.2.1]oct-3-yl]oxy}-1,1a,3,4,5,6,9,10,18,19,20,21,22,22a-tetradecahydro-8H-7,10-methanocyclopropa[18,19][1,10,3,6]dioxadiazacyclononadecino[11,12-b]quinolin-8-yl]carbonyl}amino)-2-ethenylcyclopropyl]carbonyl}[(1-methylcyclopropyl)sulfonyl]azanide] |  | 16 nM | 0.11 nM | 1.15 nM
C=C[C@@H]1C[C@]1(NC(=O)[C@@H]1C[C@@H]2CN1C(=O)[C@H](C(C)(C)C)NC(=O)O[C@@H]1C[C@H]1CCCCCc1c(nc3ccccc3c1OC1CCN(C3CC3)CC1)O2)C(=O)NS(=O)(=O)C1(C)CC1 [Example 220, (1aR,5S,8S,10R,22aR)-5-tert-butyl-17-[(1-cyclopropylpiperidin-4-yl)oxy]-N-[(1R,2S)-2-ethenyl-1-{[(1-methylcyclopropyl)sulfonyl]carbamoyl}cyclopropyl]-3,6-dioxo-1,1a,3,4,5,6,9,10,18,19,20,21,22,22a-tetradecahydro-8H-7,10-methanocyclopropa[18,19][1,10,3,6] dioxadiazacyclononadecino[11,12-b]quinoline-8-carboxamide] | 0.29 nM | 3.9 nM |  | 
C=C[C@@H]1C[C@]1(NC(=O)[C@@H]1C[C@@H]2CN1C(=O)[C@H](C(C)(C)C)NC(=O)O[C@@H]1CCC[C@H]1CCCCCc1c(nc3ccccc3c1O)O2)C(=O)NS(=O)(=O)C1(C(=C)C)CC1 [Example 37, (3aR,7S,10S,12R,24aR)-7-tert-butyl-N-[(1R, 2S)-2-ethenyl-1-({[1-(prop-1-en-2-yl)cyclopropyl]sulfonyl}carbamoyl)cyclopropyl]-19-hydroxy-5,8-dioxo-1,2,3,3a,5,6,7,8,11,12,20, 21,22,23,24,24a-hexadecahydro-10H-9,12-methanocyclopenta[18,19][1,10,3,6] dioxadiazacyclononadecino[11,12-b]quinoline-10-carboxamide] | 0.16 nM | 6 nM |  | 
C=C[C@@H]1C[C@]1(NC(=O)[C@@H]1C[C@@H]2CN1C(=O)[C@H](C(C)(C)C)NC(=O)O[C@@H]1C[C@H]1CCCCCc1c(nc3ccccc3c1OCC1CN(CC)CCO1)O2)C(=O)NS(=O)(=O)C1(C)CC1 (stereo partly drawn) [Example 226, (1aR,5S,8S,10R,22aR)-5-tert-butyl-N-[(1R,2S)-2-ethenyl-1-{[(1-methylcyclopropyl)sulfonyl]carbamoyl}cyclopropyl]-17-[(4-ethylmorpholin-2-yl)methoxy]-3,6-dioxo-1,1a,3,4,5,6,9,10,18,19,20,21,22,22a-tetradecahydro-8H-7,10-methanocyclopropa[18,19][1,10,3,6] dioxadiazacyclononadecino[11,12-b]quinoline-8-carboxamide] | 0.11 nM | 1.6 nM |  | 
C=C[C@@H]1C[C@]1(NC(=O)[C@@H]1C[C@@H]2CN1C(=O)[C@H](C(C)(C)C)NC(=O)O[C@@H]1C[C@H]1CCCCCc1c(nc3ccccc3c1OC[C@H]1CCN(C(=O)OC(C)(C)C)C1)O2)C(=O)NS(=O)(=O)C1(C)CC1 [Example 137, tert-butyl (3S)-3-({[(1aR,5S,8S,10R,22aR)-5-tert-butyl-8-{[(1R,2S)-2-ethenyl-1-{[(1-methylcyclopropyl)sulfonyl]carbamoyl}cyclopropyl]carbamoyl}-3,6-dioxo-1,1a,3,4,5,6,9,10,18,19,20,21,22,22a-tetradecahydro-8H-7,10-methanocyclopropa[18,19][1,10,3,6]dioxadiazacyclononadecino[11,12-b]quinolin-17-yl]oxy}methyl)pyrrolidine-1-carboxylate] | 0.14 nM | 1.2 nM |  | 
C=C[C@@H]1C[C@]1(NC(=O)[C@@H]1C[C@@H]2CN1C(=O)[C@H](C1CCCC1)NC(=O)O[C@@H]1CCC[C@H]1CC/C=C/Cc1c(nc3ccccc3c1OCCCN1CCCCC1)O2)C(=O)NS(=O)(=O)C1(C)CC1 [Example 58, (3aR,7S,10S,12R,21E,24aS)-7-cyclopentyl-N-[(1R,2S)-2-ethenyl-1-{[(1-methylcyclopropyl)sulfonyl]carbamoyl}cyclopropyl]-5,8-dioxo-19-[3-(piperidin-1-yl)propoxy]-1,2,3,3a,5,6,7,8,11,12,20,23,24,24a-tetra decahydro-10H-9,12-methanocyclopenta[18,19][1,10,3,6] dioxadiazacyclononadecino[11,12-b] quinoline-10-carboxamide] | 0.1 nM | 0.57 nM |  | 
C=C[C@@H]1C[C@]1(NC(=O)[C@@H]1C[C@@H]2CN1C(=O)[C@H](C(C)(C)C)NC(=O)O[C@@H]1CCC[C@H]1CCCCCc1c(nc3ccccc3c1OCCN1CCOCC1)O2)C(=O)NS(=O)(=O)C1(C(C)(C)O)CC1 [Example 108, (3aR,7S,10S,12R,24aR)-7-tert-butyl-N-[(1R,2S)-2-ethenyl-1-({[1-(2-hydroxypropan-2-yl)cyclopropyl]sulfonyl}carbamoyl)cyclopropyl]-19-[2-(morpholin-4-yl)ethoxy]-5,8-dioxo-1,2,3,3a,5,6,7,8,11, 12,20,21,22,23,24,24a-hexadeca hydro-10H-9,12-methanocyclopenta [18,19][1,10,3,6]dioxadiaza-cyclononadecino [11,12-b]quinoline-10-carboxamide] | 0.93 nM | 23 nM |  | 
C=C[C@@H]1C[C@]1(NC(=O)[C@@H]1C[C@@H]2CN1C(=O)[C@H](C1CCCC1)NC(=O)O[C@]1(C)CCC[C@H]1CCCCCc1c(nc3ccccc3c1O)O2)C(=O)NS(=O)(=O)C1CC1 (single isomer, unassigned) [Example 29] | 0.12 nM |  |  | 
C=C[C@@H]1C[C@]1(NC(=O)[C@@H]1C[C@@H]2CN1C(=O)[C@H](C1CCCC1)NC(=O)O[C@]1(C)C[C@H]1CC/C=C/Cc1c(nc3ccccc3c1O)O2)C(=O)NS(=O)(=O)C1CC1 [Example 19, (1aR,5S,8S,10R,19E,22aR)-5-cyclopentyl-N-{(1R,2S)-1-[(cyclopropylsulfonyl)carbamoyl]-2-ethenylcyclopronyl}-17-hydroxy-1a-methyl-3,6-dioxo-1,1a,3,4,5,6,9,10,18,21,22,22a-dodecahydro-8H-7,10-methanocyclopropa[18,19][1,10,3,6]dioxadiazacyclononadecino[11,12-b]quinoline-8-carboxamide] | 0.091 nM |  |  | 
